SMILES strings stand for the structures. pIC50, pKi: −log10 of the molar value. Values joined by “and” are separate entries in the source; they are usually repeats but may differ in a detail not shown here. Identical values can stand only once. “Also recorded” adds a separate entry of the source.

For one assay, the system named is chitotriosidase. The experiment in a line: chitotriosidase secretion by cultured macrophages. The following applies: cultured macrophages, glucosylceramide synthase inhibited. In kind it is cell-based, human.
Assay [1] addresses T1, glucosylceramide synthase (Homo sapiens, UniProt Q16739).
T1 sequence (Q16739 1-394): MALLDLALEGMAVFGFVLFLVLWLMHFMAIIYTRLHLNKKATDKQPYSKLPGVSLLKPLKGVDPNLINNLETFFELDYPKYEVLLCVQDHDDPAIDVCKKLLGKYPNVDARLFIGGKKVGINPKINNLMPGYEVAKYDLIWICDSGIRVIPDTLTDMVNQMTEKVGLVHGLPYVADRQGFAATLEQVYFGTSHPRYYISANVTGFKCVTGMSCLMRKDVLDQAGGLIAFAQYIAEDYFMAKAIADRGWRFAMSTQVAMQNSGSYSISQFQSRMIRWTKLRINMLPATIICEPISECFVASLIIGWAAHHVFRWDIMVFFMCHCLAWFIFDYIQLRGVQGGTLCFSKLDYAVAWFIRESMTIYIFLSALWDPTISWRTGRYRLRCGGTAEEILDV
The experiment in a line: glucosylceramide synthase activity in cultured macrophages with C6-NBD ceramide. The following applies: presence of PDMP or PPMP. The arrangement: glucosylceramide synthase activity in cultured macrophages was also determined; endogenous in cells; host or cells: cultured human macrophages. The assay is classed as cell-based.

Assay [2] has as its target T2, glucosylceramidase (Homo sapiens, UniProt Q9HCG7).
T2 sequence (Q9HCG7 1-927): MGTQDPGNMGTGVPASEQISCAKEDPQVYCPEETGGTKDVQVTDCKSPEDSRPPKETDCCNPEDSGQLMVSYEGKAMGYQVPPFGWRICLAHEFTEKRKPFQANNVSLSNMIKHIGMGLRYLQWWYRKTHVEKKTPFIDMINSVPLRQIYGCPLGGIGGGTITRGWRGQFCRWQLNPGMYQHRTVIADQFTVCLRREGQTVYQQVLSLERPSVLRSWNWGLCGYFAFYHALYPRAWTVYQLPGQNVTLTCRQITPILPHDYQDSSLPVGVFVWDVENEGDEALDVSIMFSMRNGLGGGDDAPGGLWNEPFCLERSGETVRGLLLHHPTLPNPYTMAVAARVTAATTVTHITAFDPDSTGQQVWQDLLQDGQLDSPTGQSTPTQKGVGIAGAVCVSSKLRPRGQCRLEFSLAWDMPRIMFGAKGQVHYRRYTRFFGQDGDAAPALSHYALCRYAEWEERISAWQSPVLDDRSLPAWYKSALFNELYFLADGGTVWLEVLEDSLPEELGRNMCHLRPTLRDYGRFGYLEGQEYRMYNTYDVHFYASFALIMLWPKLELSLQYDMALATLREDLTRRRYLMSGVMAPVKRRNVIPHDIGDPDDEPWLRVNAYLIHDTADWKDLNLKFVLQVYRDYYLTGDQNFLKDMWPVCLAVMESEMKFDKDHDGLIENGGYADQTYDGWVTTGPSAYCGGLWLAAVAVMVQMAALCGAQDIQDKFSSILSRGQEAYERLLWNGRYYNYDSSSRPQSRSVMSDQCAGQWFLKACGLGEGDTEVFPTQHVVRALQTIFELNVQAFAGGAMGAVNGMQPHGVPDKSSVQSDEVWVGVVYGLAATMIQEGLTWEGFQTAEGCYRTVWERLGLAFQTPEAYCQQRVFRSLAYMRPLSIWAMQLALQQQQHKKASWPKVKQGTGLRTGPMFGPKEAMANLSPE
Nature of the assay: glucosylceramidase activity towards 4MU-b-glucoside in conduritol B-epoxide pre-treated membrane suspension from human spleen.

Assay [3] addresses T1, glucosylceramide synthase. Nature of the assay: glucosylceramide synthase activity in cultured melanoma cells. In kind it is cell-based. The following applies: at IC50 concentration for glucosylceramidase.
For assay [4], the target named is T2, glucosylceramidase. Nature of the assay: glucosylceramidase activity in intact melanoma cells (4MU-b-glucoside, conduritol B-epoxide insensitive). More on the design: endogenous in cells. In kind it is cell-based. The following applies: IC50 GLUCOSYLCERAMIDASE
The target in assay [5] is T3, lysosomal a-glucosidase (Homo sapiens, UniProt P10253). The experiment in a line: lysosomal a-glucosidase in cultured melanoma cells. Conditions: at IC50 concentration for glucosylceramidase. The assay is classed as cell-based. More on the design: endogenous in cells.
In assay [6] the target is T3, lysosomal a-glucosidase. Nature of the assay: purified lysosomal a-glucosidase activity towards 4MU-a-glucoside. In kind it is biochemical. The following applies: 4MU-a-glucoside, pH 4.0; read-out: apparent Ki A-GLUCOSIDASE
Assay [7] addresses T4, glucocerebrosidase (Homo sapiens, UniProt P04062).
T4 sequence (P04062 40-536): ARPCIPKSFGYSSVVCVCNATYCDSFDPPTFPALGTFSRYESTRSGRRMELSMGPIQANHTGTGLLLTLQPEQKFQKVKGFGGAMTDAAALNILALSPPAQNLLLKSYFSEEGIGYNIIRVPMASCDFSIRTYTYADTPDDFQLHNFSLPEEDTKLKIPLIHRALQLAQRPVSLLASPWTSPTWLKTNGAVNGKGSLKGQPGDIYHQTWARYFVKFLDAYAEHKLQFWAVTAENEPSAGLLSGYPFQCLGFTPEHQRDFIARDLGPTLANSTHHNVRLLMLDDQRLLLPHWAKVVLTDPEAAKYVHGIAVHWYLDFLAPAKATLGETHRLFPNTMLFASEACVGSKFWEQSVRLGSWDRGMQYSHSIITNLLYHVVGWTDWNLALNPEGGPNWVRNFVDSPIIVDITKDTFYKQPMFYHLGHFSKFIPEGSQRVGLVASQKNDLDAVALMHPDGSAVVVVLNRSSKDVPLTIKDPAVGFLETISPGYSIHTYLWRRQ
The experiment in a line: glucocerebrosidase activity in intact melanoma cells (4MU-b-glucoside, conduritol B-epoxide sensitive). In kind it is cell-based. More on the design: the hydrolysis of 4MU-b-glucoside by cultured melanoma cells; endogenous in cells.

Assay [8] addresses T4, glucocerebrosidase. Nature of the assay: conduritol B-epoxide inhibitable glucocerebrosidase activity in membrane fraction from human spleen. In kind it is biochemical.
Assay [9] addresses T5, glucocerebrosidase (Ceredase) (Homo sapiens, UniProt P04062).
T5 construct: purchased Genzyme Corp. Boston,USA; host or cells: human placenta
T5 sequence (P04062 40-536): T4 sequence (P04062 40-536)
Nature of the assay: activity of soluble human placental glucocerebrosidase (Ceredase) towards 4MU-b-glucoside. The assay is classed as biochemical.

Another assay concerns the target T6, glycogen synthase (Rattus norvegicus, UniProt P17625).
T6 construct: endogenous in cells; host or cells: rat hepatocytes
T6 sequence (P17625 1-704): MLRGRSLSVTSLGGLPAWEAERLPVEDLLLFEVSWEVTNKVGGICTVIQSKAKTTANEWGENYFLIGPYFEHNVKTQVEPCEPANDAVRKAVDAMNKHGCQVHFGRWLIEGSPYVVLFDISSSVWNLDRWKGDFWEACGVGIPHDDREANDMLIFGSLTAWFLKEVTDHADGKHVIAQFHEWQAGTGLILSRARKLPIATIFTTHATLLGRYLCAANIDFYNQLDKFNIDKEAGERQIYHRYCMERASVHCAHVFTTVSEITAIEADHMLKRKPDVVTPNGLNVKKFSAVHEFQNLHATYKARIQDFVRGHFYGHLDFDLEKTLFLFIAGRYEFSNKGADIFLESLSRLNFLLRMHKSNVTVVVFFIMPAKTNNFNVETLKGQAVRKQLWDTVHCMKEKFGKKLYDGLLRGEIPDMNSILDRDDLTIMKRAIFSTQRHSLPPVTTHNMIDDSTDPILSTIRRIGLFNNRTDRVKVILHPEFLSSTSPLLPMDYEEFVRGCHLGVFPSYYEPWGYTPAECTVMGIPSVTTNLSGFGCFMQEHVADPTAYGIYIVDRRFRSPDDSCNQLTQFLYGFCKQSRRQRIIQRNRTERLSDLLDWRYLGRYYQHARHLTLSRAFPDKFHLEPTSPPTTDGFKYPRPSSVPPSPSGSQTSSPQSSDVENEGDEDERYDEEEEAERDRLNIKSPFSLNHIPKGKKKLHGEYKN
Nature of the assay: glycogen synthase in rat hepatocytes. Conditions: at IC50 concentration for glucosylceramidase. In kind it is cell-based.

Turning to `CCCCCCCCCCCCCCCC(=O)NC(CN1CCOCC1)C(O)c1ccccc1` (stereo not drawn) [PPMP, 1-phenyl-2-hexadecanoylamino-3-morpholino-1-propanol], the “effect on chitotriosidase secretion” value in the assay on chitotriosidase is reported as “does not result in reduced; also recorded: without effect”. Besides, the “inhibition of glucosylceramide synthase activity” value in assay [1] is recorded as “potently”.

On to `CC(C)CCC[C@@H](C)[C@H]1CC[C@H]2[C@@H]3CC=C4C[C@@H](OCCCCCN5C[C@H](O)[C@@H](O)[C@H](O)[C@H]5CO)CC[C@]4(C)[C@H]3CC[C@]12C` [P24, N-(5-cholesteroloxy-pentyl)-deoxynojirimycin], for which the negative-log IC50 (pIC50) was 7.00 at glucosylceramidase [2]; 7.30 and ~7.30 against glucosylceramidase [4]; 6.10 against glucocerebrosidase [7]; 6.15 at glucocerebrosidase [8]; 6.10 in [9]. The negative-log Ki (pKi) on glucosylceramidase [2] is 7.01; on lysosomal a-glucosidase [6], 5.14; at glucocerebrosidase [8] (membrane suspension, 4MU-b-glucoside, pH 5.2, read-out: apparent Ki GLUCOCEREBROSIDASE MEMBRANES), 6.11; in assay [9] (soluble enzyme, 0.25% sodium taurocholate, 0.1% Triton X-100, pH 5.2, read-out: apparent Ki GLUCOCEREBROSIDASE CEREDASE), 6.02. The “inhibition of glucosylceramide synthase activity” value in assay [3] is given as “no inhibition”. Also, the “inhibition of lysosomal a-glucosidase” value against lysosomal a-glucosidase [5] is given as “no inhibition”. Moreover, at glucocerebrosidase [7] (melanoma cells, at IC50 for glucosylceramidase or ten-fold higher concentrations), the “inhibition of glucocerebrosidase activity” value is on record as “no significant inhibition”. Also, the “inhibition of glycogen synthase” value on glycogen synthase was “no inhibition”.

In general, pIC50 refers to the negative decadic logarithm of the IC50, by convention in mol/L. For orientation: pKi means −log10 of the Ki, conventionally taken in molar units.

The values are drawn from patent US6177447A (Universiteit van Amsterdam, priority 1996, dated 2001).
